In article PMC8242589, “Cardiac Safety of Kinase Inhibitors – Improving Understanding and Prediction of Liabilities in Drug Discovery Using Human Stem Cell-Derived Models” (Frontiers in Cardiovascular Medicine, 2021):

Experiments:
[1] = tested on: hSC-CMs (Cor.4U Cardiomyocytes); test: CardioExcyte 96 impedance and EFP recording (beating rate, base impedance); format: cell-based, human; conditions: for activity at 0.03 µM / activity at 0.1 µM / activity at 0.3 µM / activity at 1 µM: Homo sapiens, Cardiomyocyte, vs baseline before drug (taken as 100%); for Effect on cardiomyocyte function in 3D surface plots (beating rate, base impedance, ATP), in words / Effect on hSC-CMs function (base impedance and beating rate), in words: hSC-CMs, 2 and 24 h
Outline: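 hSC-CM monolayers (Cor.4U), cultured 4 days at 37 °C, 5% CO2, recorded spontaneously beating; impedance sampled at 1 kHz, EFP at 10 kHz. Beating rate taken as reciprocal of inter-spike interval in EFP. Each test concentration expressed as fractional change versus pre-drug baseline (100%).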

[2] = tested on: hSC-CMs (Cor.4U Cardiomyocytes); test: Apoptosis assay (CellEvent Caspase-3/7 Green, IncuCyte ZOOM kinetics over 24 h); format: cell-based, human; conditions: for activity at 0.03 µM / activity at 0.1 µM / activity at 0.3 µM / activity at 1 µM: Homo sapiens, Cardiomyocyte, normalized to time-matched vehicle control; for Apoptosis (caspase-3/7 activation), result in words: monitored over 24 h
Outline: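 Cor.4U cardiomyocytes were cultured 4 days at 5% CO2 and 37 °C, given a 2 h baseline, then treated with compound for 24 h. Caspase-3/7 green nuclear signal was imaged every 2 h, and total green object area per well (μm^2/well) was normalized to the time-matched vehicle control. At least three replicates were run per concentration.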

[3] = tested on: hSC-CMs (Cor.4U Cardiomyocytes); test: ATP assay (CellTiter-Glo Luminescent Cell Viability Assay); format: cell-based, human; conditions: for viability at 0.03 µM / viability at 0.1 µM / viability at 0.3 µM / viability at 1 µM: Homo sapiens, Cardiomyocyte, normalized to time-matched DMSO control; for Effect on ATP level, in words: hSC-CMs, up to the highest test concentrations
Outline: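 Human stem-cell-derived Cor.4U cardiomyocytes (25,000–30,000/well), cultured 4 days at 37 °C, switched to serum-free BMCC medium 12 h before dosing. Cellular ATP quantified by CellTiter-Glo luminescence and normalized to time-matched DMSO controls; at least three replicates per concentration.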

GSK-3α = conditions: ref [46] (CHIR99021), [47] (SB 216763); read-out: Target IC50 GSK-3α; cited from earlier work

| SMILES | activity at 0.03 µM ([1]; 2h, read-out: BR) [%] | activity at 0.03 µM ([1]; 2h, read-out: Base Imp) [%] | activity at 0.03 µM ([1]; 24h, read-out: BR) [%] | activity at 0.03 µM ([1]; 24h, read-out: Base Imp) [%] | activity at 0.1 µM ([1]; 2h, read-out: BR) [%] | activity at 0.1 µM ([1]; 2h, read-out: Base Imp) [%] | activity at 0.1 µM ([1]; 24h, read-out: BR) [%] | activity at 0.1 µM ([1]; 24h, read-out: Base Imp) [%] | activity at 0.3 µM ([1]; 2h, read-out: BR) [%] | activity at 0.3 µM ([1]; 2h, read-out: Base Imp) [%] | activity at 0.3 µM ([1]; 24h, read-out: BR) [%] | activity at 0.3 µM ([1]; 24h, read-out: Base Imp) [%] | activity at 1 µM ([1]; 2h, read-out: BR) [%] | activity at 1 µM ([1]; 2h, read-out: Base Imp) [%] | activity at 1 µM ([1]; 24h, read-out: BR) [%] | activity at 1 µM ([1]; 24h, read-out: Base Imp) [%] | Effect on cardiomyocyte function in 3D surface plots (beating rate, base impedance, ATP), in words [1] | Effect on hSC-CMs function (base impedance and beating rate), in words [1] | activity at 0.03 µM ([2]; 2h) [%] | activity at 0.03 µM ([2]; 24h) [%] | also measured |
| --- | --- | --- | --- | --- | --- | --- | --- | --- | --- | --- | --- | --- | --- | --- | --- | --- | --- | --- | --- | --- | --- |
| Cn1cc(C2=C(c3ccc(Cl)cc3Cl)C(=O)NC2=O)c2ccccc21 [SB 216763] | 98 | 109 | 91 | 108 | 88 | 107 | 94 | 107 | 97 | 106 | 94 | 102 | 85 | 102 | 93 | 105 | minimal functional effect | did not produce functionally relevant changes | 143 | 92 | activity at 0.1 µM ([2]; 2h): 174%; activity at 0.1 µM ([2]; 24h): 132%; activity at 0.3 µM ([2]; 2h): 256%; activity at 0.3 µM ([2]; 24h): 265%; activity at 1 µM ([2]; 2h): 326%; activity at 1 µM ([2]; 24h): 352%; Time to plateau of caspase-3/7 activation ([2]; hSC-CMs): within the first hour; Apoptosis (caspase-3/7 activation), result in words ([2]; hSC-CMs): quickly induced a concentration-dependent caspase−3/7 activation; viability at 0.03 µM ([3]; 2h): 88%; viability at 0.03 µM ([3]; 24h): 98%; viability at 0.1 µM ([3]; 2h): 88%; viability at 0.1 µM ([3]; 24h): 99%; viability at 0.3 µM ([3]; 2h): 91%; viability at 0.3 µM ([3]; 24h): 95%; viability at 1 µM ([3]; 2h): 97%; viability at 1 µM ([3]; 24h): 96%; Effect on ATP level, in words [3]: did not impact the ATP level; IC50 (GSK-3α): 34 nM |
| Cc1c[nH]c(-c2cnc(NCCNc3ccc(C#N)cn3)nc2-c2ccc(Cl)cc2Cl)n1 [CHIR99021] | 99 | 96 | 95 | 97 | 93 | 93 | 92 | 97 | 90 | 94 | 92 | 91 | 84 | 90 | 93 | 88 | minimal functional effect | did not produce functionally relevant changes | 160 | 109 | activity at 0.1 µM ([2]; 2h): 143%; activity at 0.1 µM ([2]; 24h): 79%; activity at 0.3 µM ([2]; 2h): 132%; activity at 0.3 µM ([2]; 24h): 80%; activity at 1 µM ([2]; 2h): 122%; activity at 1 µM ([2]; 24h): 85%; Apoptosis (caspase-3/7 activation), result in words ([2]; hSC-CMs): did not have any functionally-relevant effect; viability at 0.03 µM ([3]; 2h): 87%; viability at 0.03 µM ([3]; 24h): 97%; viability at 0.1 µM ([3]; 2h): 87%; viability at 0.1 µM ([3]; 24h): 95%; viability at 0.3 µM ([3]; 2h): 93%; viability at 0.3 µM ([3]; 24h): 92%; viability at 1 µM ([3]; 2h): 99%; viability at 1 µM ([3]; 24h): 97%; Effect on ATP level, in words [3]: did not impact the ATP level; IC50 (GSK-3α): 10 nM |
